Measurements taken from US10881611B2, “Extracellular vesicles derived from osteoblastic lineage cells for therapeutic and diagnostic use” (Fondazione Città Della Speranza—Onlus, priority 2015, dated 2021).

Legend:
mature osteoclasts = assay: Mature osteoclasts treated for 48 hours, TRAcP colouring; type: cell-based, mouse
Source text: Primary mouse osteoclasts are obtained by medullar macrophages differentiation isolated from CD1 long bones of age comprised within 7-10 days. The litter is kept and maintained according to the legal requirements, under the supervision of a veterinary responsible. When experimentally needed, the animals are sacrificed according to the laws and the long bones are explanted and cleaned from soft tissues. The bones are then submitted to mechanical disruption in order to free the bone marrow. The cells obtained are diluted in PBS and stratified 1:1 on Histopaque (Sigma-Aldrich), and centrifuged for 30′ at 450 g. The formed buffy coat is collected and washed with PBS. […] The osteoclastic phenotype is routinely assessed by biochemical assay to tartarate resistant acidic phosphatase positivity on a cell aliquot fixed in PFA/PBS (4% v/v). […]
The sensitivity of mature osteoclasts to the antitumor medicament doxorubicin has been evaluated by treating the cells with different doxorubicin concentrations (0.1-0.2-0.5-1-2-4 μM) and carrying out TRAcP colouring after fixing. […]
The sensitivity of mature osteoclasts to the medicament zolendronate has been assessed by treating the cells with different zolendronate concentrations (10^−8, 5×10^−8, 10^−7, 5×10^−7, 10^−6, 5×10^−6, 10^−5, 5×10^−5, 10^−4 M) and carrying out TRAcP colouring after fixing. […]

[1] = system: human osteosarcoma cell lines; assay: Cell viability assay (MTT) of human osteosarcoma cell lines; type: cell-based
Procedure: Osteosarcoma cell lines sensitivity to anti-tumour drug Doxorubicin was evaluated by treating the cells with different Doxorubicin concentrations and carrying out cell viability assay with MTT at different times.
RANKL+ O-EVs were incubated with Doxorubicin (300 mg/ml) in vitro, then subjected to FACS. RANKL+ O-EV-associated doxorubicin confers red fluorescence to the nanoparticles, enabling FACS isolation thereof (FIG. 11).
Human osteosarcoma cell lines were treated with free Doxorubicin (235 ng, corresponding to a concentration of 1 micromole/litre in the medium) or with RANKL+ O-EV-associated Doxorubicin (100,000 FACS-isolated nanoparticles, containing 3.2 ng of Doxorubicin, corresponding to a concentration of 10 nanomole/litre in the medium). […] However, the treatment with anti-tumour drug-loaded RANKL+ O-EVs allowed to obtain this effect with a Doxorubicin dose 100-fold lower than the free drug (Table 1 below).

primary osteoblasts = assay: FACS evaluation of the RANKL-positive O-EV fraction released by osteoblasts under parathyroid hormone stimulation; type: cell-based, murine; settings: osteoblasts subjected to parathyroid hormone stimulation (10^−8 M human recombinant), p=0.037; without stimulation 53.06+3.47%
Procedure: Murine osteoblasts, obtained as previously described, are plated in 150 cm^2 culture flasks and grown in DMEM culture medium containing glutamine (5 mM), penicillin (1 mg/ml), streptomycin (2 mg/ml) and American fetal bovine serum (10% v/v) (FBS), and kept in incubator under 5% CO2. Upon reaching 70% confluence, cells were abundantly washed with PBS (3 times) to remove serum residues, and kept 24 hours in glutamine (5 mM)/penicillin (1 mg/ml), streptomycin (2 mg/ml) DMEM medium. […]
At the end of the procedure, the pellet obtained is resuspended in […] PBS and incubated with 10 microM CMFDA, at 37° C. for 30 min. The pellet is then brought to maximum volume with PBS in ultra-centrifuge tube, centrifuged at 30,000 RPM for 70 minutes at 4° C., and evaluated for quantity and quality by cytofluorimetric analysis. […]
FACScanto II (BD Biosciences) was resorted to for cytofluorimetric analysis. […] Moreover, the prescribed fluorescence channel compensations are carried out. […]
For evaluation of RANKL expression, CMFDA positive RANKL+ O-EV pellet is incubated for 30 min with mouse anti-RANKL antibody conjugated with Phycoerythrin (PE) (1:100) in PBS/BSA (1%). RANKL+ O-EVs are then FACS analysed and CMFDA/PE double-positive fraction is isolated for further evaluations. […]

[2] = human osteosarcoma cell lines, Table 1

COc1cccc2c1C(=O)c1c(O)c3c(c(O)c1C2=O)C[C@@](O)(C(=O)CO)C[C@@H]3O[C@H]1C[C@H](N)[C@H](O)[C@H](C)O1 [Doxorubicin]
doxorubicin concentration above which toxicity on mature osteoclasts shows (mature osteoclasts; 0.1-4 μM tested): higher than 0.2 micromolar | Doxorubicin concentration at which toxicity on tumour cells manifests ([1]; MTT at different times, osteosarcoma cell lines): > 1 µmol/L | death of the neoplastic cells ([1]; free Doxorubicin 235 ng, 1 micromole/litre in the medium): about 80% | Doxorubicin amount giving death of about 80% of the neoplastic cells [1, 2]: 235 ng | Doxorubicin concentration in the medium giving death of about 80% of the neoplastic cells [1, 2]: 1 µM

O=P(O)(O)C(O)(Cn1ccnc1)P(=O)(O)O [zolendronate]
zolendronate concentration above which toxicity on mature osteoclasts is shown (mature osteoclasts; 10^−8 to 10^−4 M tested): higher than 10^−7 M

B1: parathyroid hormone: human recombinant parathyroid hormone used at 10^−8 M to stimulate osteoblasts (protein, UniProt P01270 32-115, looked up)
Parathyroid hormone: SVSEIQLMHNLGKHLNSMERVEWLRKKLQDVHNFVALGAPLAPRDAGSQRPRKKEDNVLVESHEKSLGEADKADVNVLTKAKSQ
modifications: Parathyroid hormone
notes: human recombinant parathyroid hormone used at 10^−8 M to stimulate osteoblasts
RANKL-positive O-EV subpopulation (primary osteoblasts): 63.6±4.20%
